Consider 3 molecules from US20240327415A1, “Multicomponent Complexes, Including Salts, Crystalline Forms, and Hydrates and Solvates of ENT1 Inhibitors” (iTeos Belgium SA, priority 2023, published 2024).

The nature of data set [1]: salt screen, XRPD of damp, dried and 40° C./75% RH stored samples (Salt Preparation Methods 1 and 2). It counts as physicochemical. The note with it: Phosphoric acid, 1 equiv. More on the design: key: A = amorphous; PC = poorly crystalline; 1 = Form 1 Compound 1 hydrogen phosphate; 2 = Form 2 Compound 1 hydrogen phosphate; 3 = Form 3 Compound 1 hydrogen phosphate; 4 = Form 4 Compound 1 hydrogen phosphate. The protocol:
(§1) Salt Preparation Method 1: Approximately 25 mg of Compound 1 (free base) was weighed out into 1.5 mL screw-cap vials and a stirrer bar was added. For solid counterions, the appropriate amount of acid (1.0 or 2.0 equiv.) was weighed into separate 1.5 mL screw-cap vials. 100 μL of the appropriate solvent system was added to both the Compound 1 and the solid counterions. Stock solutions of liquid counterions were prepared, such that 100 μL contained 1.0 or 2.0 equiv. of acid. See counterion and solvent lists in Table 60 and Table 61 respectively.
(§2) The samples were stirred at 40° C. for 5-10 min and then the acid solutions were added to Compound 1, rinsing out the transfer vial with a further 50 μL of solvent. […] Experiments were temperature cycled between 40° C. and 5° C. (1 h hold; 0.1° C./min ramp/cool) for ca. 24-68 h. Anti-solvent addition (ASA) was carried out to slurries at 5° C. then experiments were heated to 30° C. over 1 h. ASA was carried out at 30° C. or 40° C. where clear solutions or gums were observed.
(§3) Temperature cycling was then continued for ca. 16-69 h, followed by further ASA and temperature cycling if required. Material was isolated at 5° C. and analyzed damp by XRPD. All isolated material was dried under vacuum at ca. 40° C. for ca. 17-91 h then re-analyzed by XRPD. The XRPD plate was stored at 40° C./75% RH for 24-48 h and then samples re-analyzed. Solutions were stored uncapped at ambient temperature to evaporate. Any residual solids were analyzed by XRPD.
(§4) Salt Preparation Method 2: The general procedure adopted in preparing the potential salts is outlined below. A known mass of Compound 1 (free base) and a known volume of the appropriate solvent system were added to 20 mL scintillation vials. The required mol. equiv. of the appropriate counterions were added to the vials as solutions or slurries in the corresponding solvent system.
(§5) The experiments were stirred at 40° C. for ca. 1 h, and then temperature cycled between 40° C. and 5° C. with 0.1° C./min ramp and 1 h hold between each step. Anti-solvent additions and subsequent slurrying at 5° C. were employed in order to facilitate crystallization. […] The damp and dried solids were subsampled and analyzed by XRPD. Where applicable, the dried solids were stored at 40° C./75% RH for 24-48 h in order to improve the crystallinity and/or facilitate solid form conversion to the desired form.

Test in data set [2]: as above
The format is physicochemical. More on the design: key: A = amorphous; Evap. = isolated via evaporation. The method in brief: (§6)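 XRPD was recorded three times: on damp solids isolated at 5 °C, after ~17–91 h vacuum drying at ~40 °C, and after 24–48 h storage at 40 °C/75% RH. Solids came from stirring free base with 1.0 or 2.0 equiv. counterion at 40 °C, 40–5 °C temperature cycling, and anti-solvent addition.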

Test in data set [3]: as above
The format is physicochemical. More on the design: key: A = amorphous; 1 = Form 1 Compound 1 hydrogen chloride; PC = poorly crystalline. The note with it: AS Heptane. The protocol: as §1, §2, §3, §4, §5

Test in data set [4]: as above
The format is physicochemical. To be noted: Hydrochloric acid, 2 equiv.; Ethanol*; AS Heptane. A digest of the protocol:
as §6

Data set [5] addresses T1, ENT1 (Homo sapiens, UniProt Q99808).
T1 construct: endogenous in cells; host or cells: CD19-positive cells (B cells) in whole blood from healthy donors
T1 sequence (Q99808 1-456): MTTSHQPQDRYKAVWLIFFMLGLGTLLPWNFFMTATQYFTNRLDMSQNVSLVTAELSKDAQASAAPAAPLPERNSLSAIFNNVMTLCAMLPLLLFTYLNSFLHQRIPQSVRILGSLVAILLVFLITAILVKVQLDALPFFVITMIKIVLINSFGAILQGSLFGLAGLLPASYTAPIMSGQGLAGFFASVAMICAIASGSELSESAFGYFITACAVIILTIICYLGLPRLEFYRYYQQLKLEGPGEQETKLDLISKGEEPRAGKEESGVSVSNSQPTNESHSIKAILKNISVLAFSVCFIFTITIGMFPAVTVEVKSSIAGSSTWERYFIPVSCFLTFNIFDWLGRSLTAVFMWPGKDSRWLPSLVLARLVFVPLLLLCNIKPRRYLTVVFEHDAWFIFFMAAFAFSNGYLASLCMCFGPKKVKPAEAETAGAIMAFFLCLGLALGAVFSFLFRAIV
As to the kind of experiment: ENT1 activity: intracellular uptake of 5-Ethynyl-Uridine (5EU) in whole blood, CD19 positive cells, flow cytometry. The format is cell-based. To be noted: 5EU 60 min at 37° C. The protocol: Example 20-ENT1 Activity of Crystalline Form 2 Compound 1 di(hydrogen sulfate) trihydrate compared to Compound 1 (free base)-Initial and after Six-Month Storage: (1) Initial time: Whole blood from 8 healthy donors was incubated with 5-Ethynyl-Uridine (5EU, CAS #: 69075-42-9, Jena Bioscience) for 60 min at 37° C., in the absence or presence of freshly suspended 1 μM Compound 1 (free base) or 1 μM Form 2 Compound 1 di(hydrogen sulfate) trihydrate. Intracellular uptake of 5EU through ENT1 transporters was assessed by standard flow cytometry and ENT1 activity was determined.
In FIG. 101, the data are expressed as % of ENT1 activity in untreated CD19 cells, arbitrary set at 100%, and are the means±SD of three independent experiments. Statistical analysis was performed using one-way analysis of variance (ANOVA) followed by Tukey's post hoc analysis with Prism 10.1.2 software (GraphPad Software). *: p<0.0001 vs. untreated B cells; ns: non-significant.
(2) Six months: Compound stability was evaluated on suspended solutions of Compound 1 (free base) or Form 2 Compound 1 di(hydrogen sulfate) trihydrate that were stored at −20° C. for 6 months. On the day of the experiment, whole blood from 3 healthy donors was incubated with 5-Ethynyl-Uridine (5EU, CAS #: 69075-42-9, Jena Bioscience) for 60 min at 37° C., in the absence or presence of either 1 μM Compound 1 (free base) or 1 μM Form 2 Compound 1 di(hydrogen sulfate) trihydrate of 6-month-old solutions. Intracellular uptake of 5EU through ENT1 transporters was assessed by standard flow cytometry and ENT1 activity was determined.
In FIG. 102, the data are expressed as % of ENT1 activity in untreated CD19 cells, arbitrary set at 100%, and are the means±SD. Statistical analysis was performed using two-way analysis of variance (ANOVA) with Prism 10.1.2 software (GraphPad Software). *: p<0.05 vs. untreated B cells; **: p<0.01 vs. untreated B cells; ns: non-significant.
For orientation: In flow cytometry, cells or beads pass a laser one at a time.

[6] abbreviates: Phosphoric acid, 1 equiv., Acetonitrile, AS tBME.
[7] abbreviates: Phosphoric acid, 1 equiv., IPA:H2O (75:25% v/v), AS tBME.
Setting [8] is: Phosphoric acid, 1 equiv., Ethyl acetate.
The mark [9] stands for this setting: Hydrochloric acid, 2 equiv., Acetonitrile, AS tBME.
[10] abbreviates: Hydrochloric acid, 2 equiv., Ethyl acetate, AS Heptane.
[11] abbreviates: Hydrochloric acid, 2 equiv., IPA:H2O (75:25% v/v), AS tBME.
Where [12] appears, read: Hydrochloric acid, 2 equiv., MEK, AS Heptane.
The mark [13] stands for this setting: Hydrochloric acid, 2 equiv., THF, AS Heptane.
Setting [14] is: Hydrochloric acid, 2 equiv., Ethanol*.

For the molecule `O=P(O)(O)O` [Phosphoric acid, 1 equiv.], the “XRPD Analysis 40° C. 75% RH” value in data set [1] (Acetonitrile, AS tBME) is listed as 4; in data set [1] (Ethanol, AS Heptane), 1; in data set [1] (Ethyl acetate, AS Heptane) it was 2; in data set [1] (MEK, AS Heptane), 2; in data set [1] (THF, AS Heptane), 1; in data set [2] (setting [7]), “A”. Moreover, the “XRPD Analysis Damp” value is 1 in data set [1] (Ethanol, AS Heptane); 3 in data set [1] (MEK, AS Heptane); 1 in data set [1] (THF, AS Heptane); “A” in data set [2] (setting [6]); “A” in data set [2] (setting [7]); “PC” in data set [3] (setting [8]). Moreover, the “XRPD Analysis Dry” value is 1 in data set [1] (Ethanol, AS Heptane); 2 in data set [1] (MEK, AS Heptane); 1 in data set [1] (THF, AS Heptane); “A” in data set [2] (setting [6]); “A” in data set [2] (setting [7]); “PC” in data set [3] (setting [8]).

Consider `Cl` [Hydrochloric acid, 2 equiv.], for which the “XRPD Analysis 40° C. 75% RH” value in data set [4] is recorded as 1 (PC); in data set [2] (setting [9]), “A”; in data set [2] (setting [10]), “A”; in data set [2] (setting [11]), “A”; in data set [2] (setting [12]), “A”; in data set [2] (setting [13]), “A”. For the same molecule, the “XRPD Analysis Damp” value in data set [2] (setting [9]) was “A”; in data set [2] (setting [10]) it was “A”; in data set [2] (setting [11]), “A”; in data set [2] (setting [12]) it was “A”; in data set [2] (setting [13]), “A”; in data set [3] (setting [14]), 1. Also, the “XRPD Analysis Dry” value in data set [2] (setting [9]) is “A”; in data set [2] (setting [10]) it was “A”; in data set [2] (setting [11]) it was “A”; in data set [2] (setting [12]) it was “A”; in data set [2] (setting [13]), “A”; in data set [3] (setting [14]), 1.

Turning to `COc1cc(C(=O)O[C@@H]2CCCOc3cc(cc(OC)c3OC)C(=O)NCCCN3CCCN(CC2)CC3)cc(OC)c1OC` [Compound 1, (16R)-9,10-dimethoxy-6-oxo-12-oxa-1,5,19-triazatricyclo[17.3.2.1^7,11]pentacosa-7(25), 8,10-trien-16-yl 3,4,5-trimethoxybenzoate], the “decrease of ENT1 activity compared to untreated CD19 positive cells” value was “No significant effect” in data set [5] (1 μM of solutions stored at −20° C. for 6 months, whole blood from 3 healthy donors) and 49.8% in data set [5] (1 μM, freshly suspended, whole blood from 8 healthy donors).
